Consider 14 compounds from patent US9708370B2, “Azapeptides as CD36 binding compounds” (VALORISATION-RECHERCHE, LIMITED PARTNERSHIP, priority 2007, dated 2017).

Where two headings read alike, the source gives them in different places. Starred links: 1 amine or outer side, 2 acyl side, 3 side chain; linkers in the order of their positions; H or OH if unused. Non-standard residues stand in square brackets, D forms with d. Residues, ends and D or L forms follow the SMILES beside them. *: point of attachment. X4 = O=C(N(Cc1ccc(-c2ccccc2)cc1)N[*:1])[*:2]; azaTyr = O=C(N(Cc1ccc(O)cc1)N[*:1])[*:2]; X3 = O=C(N(Cc1cccc2ccccc12)N[*:1])[*:2]; azaPhe = O=C(N(Cc1ccccc1)N[*:1])[*:2]; AzaAla = CN(N[*:1])C(=O)[*:2]; X5 = O=C(CC1CNc2ccccc21)*; azaGly = NNC(=O)O

The target of assay [1] is CD36 (Rattus norvegicus (Rat), UniProt Q07969). The assay can be described thus: CD36 receptor covalent photolabelling binding assay, competition with [125I]Tyr-Bpa-Ala-hexarelin on rat cardiac membranes. The settings on record: for binding activity/affinity at CD36 in words: compared with parent peptide GHRP-6 or hexarelin. As for the experimental part: The hearts from Sprague Dawley rats (300 g-325 g) from Charles River, used as a source of cardiac membranes, were prepared as follows: the heart was washed with ice-cold saline, and fatty and connective tissue was removed. The tissue was cut into small pieces with scissors and placed in a Sorvall centrifuge tube containing 5 ml/g of fresh tissue of Buffer A (10 mM NaHCO3, 5 mM NaN3, 10 μM Pefabloc, 0.1 μM Aprotinin, 1 μM Pepstatin A, 1 μM Leupeptin, pH 7.0). The suspension was homogenized with a Polytron at low speed, 3×15 sec. The homogenate was centrifuged at 8 700×g for 20 min and the supernatant was put on ice. The pellet was resuspended and homogenized with a Glass-teflon Potter by 5 strokes. The homogenate was centrifuged at 8 700×g for 10 min and this supernatant was combined with the first supernatant. The supernatant fluid was centrifuged at 35 000×g for 20 min, yielding a second pellet fraction that was suspended thoroughly in a glass homogenizer with a Teflon pestle in 20 ml/g of fresh tissue of Buffer B (20 mM Tris-maleate, 0.6M KCl, pH 6.8). The resulting suspension was centrifuged again at 35 000×g for 60 min. The third pellet fraction was resuspended thoroughly in a glass homogenizer with a Teflon pestle in 20 ml/g of fresh tissue of Buffer C (10 mM Tris/HCl buffer pH 7.4) followed with another centrifugation at 35 000×g for 60 min. The harvested precipitate was then suspended in a small volume (1-2 ml/g of fresh tissue) of 50 mM Tris/HCl buffer pH 7.4) containing 2 mM EGTA. The resulting membrane preparation was frozen at −80° C. Protein concentration was determined with bicinchoninic acid (BCA) method, using BSA as standard.
CD36, sequence (Q07969 whole entry): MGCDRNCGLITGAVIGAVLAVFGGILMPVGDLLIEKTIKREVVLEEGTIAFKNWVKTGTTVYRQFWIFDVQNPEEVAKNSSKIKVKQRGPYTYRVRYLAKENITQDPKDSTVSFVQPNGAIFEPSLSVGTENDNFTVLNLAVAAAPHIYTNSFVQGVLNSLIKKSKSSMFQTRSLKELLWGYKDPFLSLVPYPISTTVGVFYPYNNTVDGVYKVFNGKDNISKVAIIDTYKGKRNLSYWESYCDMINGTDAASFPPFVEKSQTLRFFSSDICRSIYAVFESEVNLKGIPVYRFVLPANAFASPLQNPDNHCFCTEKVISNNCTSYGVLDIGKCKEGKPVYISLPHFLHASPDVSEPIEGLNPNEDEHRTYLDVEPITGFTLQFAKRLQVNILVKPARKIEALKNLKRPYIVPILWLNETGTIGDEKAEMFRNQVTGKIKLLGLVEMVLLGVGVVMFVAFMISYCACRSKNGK
The iodination procedure was performed in the darkness. […] The reaction was started by adding 5 ul (3 nmol) of H2O2. The incubation was carried out at 22° C. for 5 min. The addition of H2O2 was repeated twice with 5 min incubation each time. The reaction was stopped with the addition of 1.4 ml of 0.1% TFA. The iodinated peptide was purified on a reverse-phase Vydac C18 column with a 60 min linear gradient (1 ml/min) from 20% to 50% acetonitrile (90%) in 0.1% TFA (10%).
Nonspecific binding was defined as binding not displaced by 50 μM corresponding peptide. All peptide containing solutions were diluted in Buffer B. Buffer A and B were degassed under vacuum, and used in capped tubes in order to minimize lipid peroxydation. Before the incubation period, all tubes were put under a low flow of nitrogen. All material was kept on ice and the binding assay was performed in darkness. After an incubation period of 60 min at 22° C. […] After centrifugation at 12 000×g for 15 minutes, the pellets were resuspended in 150 μl of sample buffer (62 mM Tris-HCl, pH 6.8, 2% SDS, 10% glycerol, 15% 2-mercapto-ethanol, and 0.05% bromophenol blue), and boiled for 5 min prior to being subjected to electrophoresis. Proteins (200 μg/100 μl) were separated on 7.5% SDS-PAGE (45 V overnight). The gels resulting from SDS/PAGE were fixed, colored in Coomassie Brilliant Blue R-250, dried, exposed to a storage phosphor intensifying screen (Amersham Biosciences), and analysed by using a Typhoon PhosphorImager (Amersham Biosciences) and ImageQuant 5.0 software to establish competition curves. Protein bands were quantified by densitometry. The covalent binding signal of 87 kDa was analyzed by densitometry using Typhoon Phospholmager™ (Typhoon, Amersham Biosciences) and ImageQuant 5.0® software to set competition curves.
Specific binding activities were defined as the ratio of the density of the protein band to that of a non-specific band. Results are expressed as the percentage of the density of the […] to that of the total binding band.

The target in assay [2] is human GHS-R1a (Homo sapiens (Human), UniProt Q92847). The assay can be described thus: GHS-R1a binding assay, competition with 125I-ghrelin on membranes of LLC-PK1 cells expressing human GHS-R1a. As for the experimental part: Rat ghrelin was radio iodinated with Na^125I using the lodo-Beads iodination reagent (Pierce #28665). Briefly, an lodo-bead was incubated with 2 mCi of Na^125I (Amersham) in 100 μL of 50 mM sodium phosphate buffer, pH 7.0 for 5 min at 22° C. The reaction was started by adding 20 nmol of the peptide (1 mM in 0.1 M acetic acid). The tube was incubated for 10 min at 22° C. The iodination was terminated by adding 1 mL of 0.1% TFA. The mono-iodinated peptide was purified by reverse-phase HPLC using a Vydac C18 ([…]) column (30 cm×0.39 cm) in combination with a binary elution system of (A) 0.1% TFA in H2O and (B) 0.1% TFA, 10% H2O, 90% acetonitrile. Fractions of 0.5 mL were collected and analyzed by its radioactive content.
human GHS-R1a, sequence (Q92847 whole entry): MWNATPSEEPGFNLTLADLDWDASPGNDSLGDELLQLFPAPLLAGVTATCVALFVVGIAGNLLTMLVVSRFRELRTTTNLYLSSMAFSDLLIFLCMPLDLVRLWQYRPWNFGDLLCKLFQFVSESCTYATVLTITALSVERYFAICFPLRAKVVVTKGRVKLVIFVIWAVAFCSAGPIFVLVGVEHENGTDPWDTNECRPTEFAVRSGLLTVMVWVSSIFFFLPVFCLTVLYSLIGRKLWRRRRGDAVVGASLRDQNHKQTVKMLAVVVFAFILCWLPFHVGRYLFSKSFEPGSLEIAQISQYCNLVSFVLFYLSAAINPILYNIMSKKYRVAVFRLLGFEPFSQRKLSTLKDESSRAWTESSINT
Cells (1.4×10^6) were plated in 100 mm plates and transfected 24 h later with pCDNA3.1-hGHS-R1a (UMR cDNA Resource Center #GHSR0A0000) following the CaHPO4 precipitation method. Briefly, 40 μg of plasmid DNA was diluted in 500 μL of sterile H2O and added to an equal volume of a 4× CaCl2, pH 7.9 solution (2 mM Tris-HCl, 0.2 mM EDTA, 500 mM CaCl2). The mixture was then added slowly with air bubbles to 1 mL of 2× Hepes-buffered saline, pH 7.1 (50 mM Hepes, 280 mM NaCl, 1.5 mM Na2HPO4). After 30 min at room temperature, 1 mL was distributed evenly over the cells and let overnight. The medium was changed the next morning and the membrane preparation was made two days later.
Cells were washed twice with PBS and once with ice-cold homogenization buffer (50 mM Tris-HCl, pH 7.3, 5 mM MgCl2, 2.5 mM EDTA, 30 μg/ml bacitracin). Cells were scraped and harvested in 1.5 mL tubes. Cells were then lysed by temperature shock with two freeze/thaw cycles in liquid nitrogen. The tubes were centrifuged at 14000 g for 20 min. Pellets were resuspended in homogenization buffer and stored at −80° C. until used. Total protein concentrations were determined with the BCA protein assay kit (Pierce).
Competition experiments were performed by incubating 50 μg of LLC-PK1 membranes expressing human GHS-R1a with 15 fmol of ^125I-Ghrelin and increasing concentrations of unlabeled ghrelin or with increasing concentrations of azapeptides derivatives in 0.5 mL of binding buffer. Bound radiolabelled ligand was separated from free by filtration on Whatman GF/C filters pretreated with a 1% polyethylenimine solution. Filters were washed with 2×3 mL of washing buffer (50 mM Tris-HCl, pH 7.3, 10 mM MgCl2, 2.5 mM EDTA, 0.015% Triton X-100). Filters were counted in a LKB gamma counter. Curves were analyzed using Prism software (GraphPad Software Inc).

[3] abbreviates: Table 6, read-out: IC50 Binding CD36.
[4] abbreviates: Table 5, read-out: IC50 Binding GHS-R1a.
Where [5] appears, read: Table 4, LLCPK-1 membranes overexpressing GHS-R1a, radioiodinated (1-28) rat ghrelin as tracer, read-out: EC50 (text: IC50 values from competition curves in GHS-R1a radioreceptor assay).
Where [6] appears, read: Table 3, rat cardiac membranes, [125I]Tyr-Bpa-Ala-hexarelin as radioligand, read-out: IC50, binding affinity of aza peptide derivatives towards CD36.

Take `C[C@H](NC(=O)[C@@H](Cc1ccccc1)NC(=O)[C@H](Cc1c[nH]c2ccccc12)NC(=O)[C@H](C)NC(=O)N(Cc1ccccc1)NC(=O)[C@@H](N)Cc1cnc[nH]1)C(N)=O` [CP-1A (i), His-azaPhe-Ala-Trp-D-Phe-Ala-NH2] (H-H[azaPhe]AW[dF]A-NH2): the IC50 (in general, the concentration that gives 50% inhibition) is above 10 µM in assay [1] (setting [3]); above 10 µM in assay [2] (Table 5, listed as CP-1A(i), read-out: IC50 Binding GHS-R1a); 51 µM in assay [2] (setting [4]).

For `C[C@H](NC(=O)[C@H](C)NC(=O)N(Cc1ccccc1)NC(=O)[C@@H](N)Cc1cnc[nH]1)C(=O)N[C@H](Cc1ccccc1)C(=O)N[C@@H](CCCCN)C(N)=O` [CP-1A (iii), (D/L)His-azaPhe-Ala-Ala-D-Phe-Lys-NH2] (H-H[azaPhe]AA[dF]K-NH2), the results for the IC50 in assay [1] (setting [3]) and in assay [2] (setting [4]) were 27.6 µM and above 10 µM, respectively.

Regarding `C[C@H](N)C(=O)NN(Cc1ccccc1)C(=O)N[C@@H](C)C(=O)N[C@@H](Cc1c[nH]c2ccccc12)C(=O)N[C@H](Cc1ccccc1)C(=O)N[C@@H](CCCCN)C(N)=O` [CP-1A (iv), Ala-azaPhe-Ala-Trp-D-Phe-Lys-NH2] (H-A[azaPhe]AW[dF]K-NH2), the IC50 was 5.02 µM in assay [1] (setting [3]) and above 10 µM in assay [2] (setting [4]). In addition, the “binding activity/affinity at CD36 in words” value in assay [1] is “without major change”. Further, in assay [2] (compared with GHRP-6), the “binding affinity for GHS-R1a receptor in words” value was “decreased drastically”. With `C[C@H](NC(=O)[C@@H](Cc1ccccc1)NC(=O)[C@H](Cc1c[nH]c2ccccc12)NC(=O)[C@H](C)NC(=O)N(Cc1ccc(O)cc1)NC(=O)[C@@H](N)Cc1cnc[nH]1)C(N)=O` [CP-1B (i), His-AzaTyr-Ala-Trp-D-Phe-Ala-NH2] (H-H[azaTyr]AW[dF]A-NH2), the IC50 in assay [1] (setting [3]) is 72.2 µM; in assay [2] (setting [4]), above 10 µM. For the compound `C[C@H](NC(=O)N(Cc1ccc(O)cc1)NC(=O)[C@@H](N)Cc1cnc[nH]1)C(=O)N[C@@H](Cc1c[nH]c2ccccc12)C(=O)N[C@H](C)C(=O)N[C@@H](CCCCN)C(N)=O` [CP-1B (ii), His-azaTyr-Ala-Trp-D-Ala-Lys-NH2] (H-H[azaTyr]AW[dA]K-NH2), the IC50 in assay [1] (setting [3]) and in assay [2] (setting [4]) was above 10 µM in each case.

For `C[C@H](N)C(=O)NN(Cc1ccc(O)cc1)C(=O)N[C@@H](C)C(=O)N[C@@H](Cc1c[nH]c2ccccc12)C(=O)N[C@H](Cc1ccccc1)C(=O)N[C@@H](CCCCN)C(N)=O` [CP-1B (iv), Ala-AzaTyr-Ala-Trp-D-Phe-Lys-NH2] (H-A[azaTyr]AW[dF]K-NH2), the IC50 was 17.4 µM in assay [1] (setting [3]) and above 10 µM in assay [2] (setting [4]). For `C[C@H](N)C(=O)N[C@H](Cc1c[nH]c2ccccc12)C(=O)NNC(=O)N[C@@H](Cc1c[nH]c2ccccc12)C(=O)N[C@H](Cc1ccccc1)C(=O)N[C@@H](CCCCN)C(N)=O` [CP-2A(v), Ala-D-Trp-azaGly-Trp-D-Phe-Lys-NH2] (H-A[dW][azaGly]W[dF]K-NH2), the IC50 in assay [1] (setting [3]) was found to be 8.76 µM. For the compound `NCCCC[C@H](NC(=O)[C@@H](Cc1ccccc1)NC(=O)C1CCCN1C(=O)NNC(=O)[C@@H](Cc1c[nH]c2ccccc12)NC(=O)[C@@H](N)Cc1cnc[nH]1)C(N)=O` (stereo partly drawn) [CP-AzaGly-Pro, His-D-Trp-azaGly-Pro-D-Phe-Lys-NH2], the IC50 in assay [2] (setting [4]) is above 10 µM. Take `CN(NC(=O)[C@@H](Cc1c[nH]c2ccccc12)NC(=O)[C@@H](N)Cc1cnc[nH]1)C(=O)N[C@@H](Cc1c[nH]c2ccccc12)C(=O)N[C@H](Cc1ccccc1)C(=O)N[C@@H](CCCCN)C(N)=O` [DBG145, His-D-Trp-azaAla-Trp-D-Phe-Lys-NH2] (H-H[dW][AzaAla]W[dF]K-NH2): the IC50 in assay [2] (setting [5]) stood at 0.809 µM. Same read-out and setting: as for `CN(NC(=O)[C@@H](Cc1c[nH]c2ccccc12)NC(=O)CC1CNc2ccccc21)C(=O)N[C@@H](Cc1c[nH]c2ccccc12)C(=O)N[C@H](Cc1ccccc1)C(=O)N[C@@H](CCCCN)C(N)=O` (stereo partly drawn) [DBG168-8, In—CO-D-Trp-azaAla-Trp-D-Phe-Lys-NH2] (X5-[dW][AzaAla]W[dF]K-NH2), the figure is 0.514 µM. Turning to `NCCCC[C@H](NC(=O)[C@@H](Cc1ccccc1)NC(=O)[C@H](Cc1c[nH]c2ccccc12)NC(=O)NNC(=O)[C@@H](Cc1c[nH]c2ccccc12)NC(=O)[C@@H](N)Cc1cnc[nH]1)C(N)=O` [DBG188p, His-D-Trp-azaGly-Trp-D-Phe-Lys-NH2] (H-H[dW][azaGly]W[dF]K-NH2), the IC50 in assay [1] (setting [6]) came to 9.61 µM. For the same compound, the “binding activity/affinity at CD36 in words” value in assay [1] is listed as “retained significant activity similar to the parent peptide”. As for `C[C@H](NC(=O)[C@@H](Cc1c[nH]c2ccccc12)NC(=O)[C@@H](N)Cc1cnc[nH]1)C(=O)NN(Cc1ccc(-c2ccccc2)cc1)C(=O)N[C@H](Cc1ccccc1)C(=O)N[C@@H](CCCCN)C(N)=O` [DBG253-3, His-D-Trp-Ala-azaBip-D-Phe-Lys-NH2] (H-H[dW]A[X4][dF]K-NH2), the IC50 in assay [2] (setting [5]) came out at 1.34 µM. As for `C[C@H](NC(=O)[C@@H](Cc1c[nH]c2ccccc12)NC(=O)[C@@H](N)Cc1cnc[nH]1)C(=O)NN(Cc1cccc2ccccc12)C(=O)N[C@H](Cc1ccccc1)C(=O)N[C@@H](CCCCN)C(N)=O` [DBG253-6, His-D-Trp-Ala-azaNal-1-D-Phe-Lys-NH2] (H-H[dW]A[X3][dF]K-NH2), the IC50 in assay [2] (setting [5]) is 0.723 µM. Take `C[C@H](NC(=O)N(Cc1cccc2ccccc12)NC(=O)[C@@H](N)Cc1cnc[nH]1)C(=O)N[C@@H](Cc1c[nH]c2ccccc12)C(=O)N[C@H](Cc1ccccc1)C(=O)N[C@@H](CCCCN)C(N)=O` [DBG253-10, His-azaNal-1-Ala-Trp-D-Phe-Lys-NH2] (H-H[X3]AW[dF]K-NH2): the IC50 in assay [1] (setting [6]) came to 1930 µM.
